Like-named read-outs stand apart in the source and are kept apart here.
Assays:
[1] = system: ES-2 (clear cell carcinoma) ovarian cancer cell line; experiment: CyQuant NF cell proliferation assay (DNA content), single agents and paired combinations, ES-2; type: cell-based
Text: (§1) Ovarian cancer cell lines: ES-2 (clear cell carcinoma) and SKOV-3 (adenocarcinoma), were used to investigate the pharmacodynamic interactions resulting from the paired combination of Radium-224 (^224Ra) with a DNA repair inhibitor exemplified by the poly (ADP-ribose) polymerase inhibitors (PARPi); niraparib and olaparib.

[2] = system: SKOV-3 (adenocarcinoma) ovarian cancer cell line; experiment: CyQuant NF cell proliferation assay (DNA content), single agents and paired combinations, SKOV-3; type: cell-based; conditions: Homo sapiens
Text: as §1

[3] = 72 h, ES-2, Day 3, PARPi in paired combination with 224Ra, read-out: Paired combination IC50
[4] = 72 h, ES-2, Day 3, single agent, read-out: Single agent IC50
[5] = 96 h, ES-2, Day 4, PARPi in paired combination with 224Ra, read-out: Paired combination IC50
[6] = 96 h, ES-2, Day 4, single agent, read-out: Single agent IC50
[7] = 120 h, ES-2, Day 5, PARPi in paired combination with 224Ra, read-out: Paired combination IC50
[8] = 120 h, ES-2, Day 5, single agent, read-out: Single agent IC50
[9] = SK-OV-3, 72 h, SKOV-3, Day 3, PARPi in paired combination with 224Ra, read-out: Paired combination IC50
[10] = SK-OV-3, 72 h, SKOV-3, Day 3, single agent, read-out: Single agent IC50
[11] = SK-OV-3, 96 h, SKOV-3, Day 4, PARPi in paired combination with 224Ra, read-out: Paired combination IC50
[12] = SK-OV-3, 96 h, SKOV-3, Day 4, single agent, read-out: Single agent IC50
[13] = SK-OV-3, 120 h, SKOV-3, Day 5, PARPi in paired combination with 224Ra, read-out: Paired combination IC50
[14] = SK-OV-3, 120 h, SKOV-3, Day 5, single agent, read-out: Single agent IC50

| Compound | IC50 [1, 3] [nM] | IC50 [1, 4] [nM] | IC50 [1, 5] [nM] | IC50 [1, 6] [nM] | IC50 [1, 7] [nM] | IC50 [1, 8] [nM] | IC50 [2, 9] [nM] | IC50 [2, 10] [nM] | IC50 [2, 11] [nM] | IC50 [2, 12] [nM] | IC50 [2, 13] [nM] | IC50 [2, 14] [nM] |
| --- | --- | --- | --- | --- | --- | --- | --- | --- | --- | --- | --- | --- |
| NC(=O)c1cccc2cn(-c3ccc([C@@H]4CCCNC4)cc3)nc12 [Niraparib, niraparib] | 420 | 690 | 250 | 780 | 360 | 620 | 2450 | 5160 | 430 | 2830 | 220 | 2200 |
| O=C(c1cc(Cc2n[nH]c(=O)c3ccccc23)ccc1F)N1CCN(C(=O)C2CC2)CC1 [Olaparib, olaparib] | 1430 | 3510 | 500 | 1230 | 930 | 2210 | 10200 | 21400 | 2670 | 23600 | 810 | 1830 |

Source: patent publication US20230330280A1, “PREPARATIONS OF RADIUM-224 AND PROGENIES FOR USE IN RADIONUCLIDE THERAPY IN COMBINATION WITH DNA REPAIR INHIBITORS” (priority 2020, published 2023)
